Experimental findings from publication PMC6359749, “Lignans from the Twigs of Litsea cubeba and Their Bioactivities” (Molecules, 2019) are described below.

In test [1] the test system is human non-small-cell lung carcinoma (NCI-H1650) cell line. Nature of the test: Cytotoxicity assay (MTT), NCI-H1650. Format: cell-based. As to conditions: for IC50: Homo sapiens, NCI-H1650, MTT, 24 h treatment. Here is the method:
(§1) The cytotoxic activity was determined against human colon cancer (HCT-116), human non-small-cell lung carcinoma (NCI-H1650), and human ovarian cancer (A2780) cell lines which were bought from the Cell Bank of Shanghai Institute of Cell Biology (Chinese Academy of Sciences) and originally obtained from the American Type Culture Collection (ATCC, Rockville, MD, USA). Cells were grown in RPMI 1640 (GIBCO, New York, NY, USA) supplemented with 10% fetal calf serum (Life Technologies, Carlsbad, CA, USA), penicillin G (100 U/mL), and streptomycin (100 μg/mL) at 37 °C in a 5% CO2 and seeded in 96-well plates (CLS3635, Corning®, Sigma, Santa Clara, CA, USA) at a cell density of 3000 per well over night, and then were treated with various diluted concentrations (each concentration was arranged triple) of compounds 1–19, which were prepared with DMSO (Sigma) to 100 μM stock solution and stored in −20 °C in advance. After 24 h of treatment, 10 μL of MTT (5 mg/mL in PBS) was then added directly to all wells and the plates were placed in the dark at 37 °C for 3 h incubation. Cell viability was measured by observing absorbance at 570 nm on a SpectraMax^190 microplate reader (Molecular Devices, Silicon Valley, CA, USA). IC50 values were calculated using Microsoft Excel software (version 2010, Redmond, WA, USA). Taxol was used as a positive control.

Test [2] relates to human ovarian cancer (A2780) cell line. Nature of the test: Cytotoxicity assay (MTT), A2780. As to conditions: 24 h treatment. It counts as cell-based. Here is the method:
as §1

In test [3] the test system is human colon cancer (HCT-116) cell line. Nature of the test: Cytotoxicity assay (MTT), HCT-116. Format: cell-based. Conditions: 24 h treatment. The procedure:
as §1

Test [4] concerns LPS-induced NO production in RAW264.7 macrophages. Nature of the test: LPS-induced nitric oxide (NO) production in RAW264.7 macrophages (Griess). It counts as cell-based. Conditions: Mus musculus, LPS 1 μg/mL, 18 h, read-out: IC50 against LPS-induced NO production. The procedure: The RAW 264.7 macrophages were cultured in The RPMI 1640 medium (Hyclone, Logan, UT, USA) containing 10% FBS. The compounds were dissolved in DMSO and further diluted in medium to produce different concentrations. The cell mixture and culture medium were dispensed into 96-well plates (2 × 10^5 cells/well) and maintained at 37 °C under 5% CO2. After preincubation for 24 h, serial dilutions of the test compounds were added into the cells, up to the maximum concentration 25 μM, then added with LPS to a concentration 1 μg/mL and continued to incubate for 18 h. The amount of NO was assessed by determined the nitrite concentration in the cultured RAW264.7 macrophage supernatants with Griess reagent. Aliqueots of supernatants (100 μL) were incubated, in sequence, with 50 μL 1% sulphanilamide and 50 μL 1% naphthylethylenediamine in 2.5% phosphoric acid solution. The sample absorbance was measured at 570 nm by a 2104 Envision Multilabel Plate Reader (PerkinElmer, Inc., Waltham, MA, USA). Dexamethasone was used as a positive control.
(Nitrite, measured by Griess reagent, commonly stands in for NO production.)

Test [5] deals with T1, human protein tyrosine phosphatase 1B (GST-hPTP1B) (Homo sapiens, UniProt P18031).
T1 construct: GST; made in house
T1 sequence (P18031 1-435): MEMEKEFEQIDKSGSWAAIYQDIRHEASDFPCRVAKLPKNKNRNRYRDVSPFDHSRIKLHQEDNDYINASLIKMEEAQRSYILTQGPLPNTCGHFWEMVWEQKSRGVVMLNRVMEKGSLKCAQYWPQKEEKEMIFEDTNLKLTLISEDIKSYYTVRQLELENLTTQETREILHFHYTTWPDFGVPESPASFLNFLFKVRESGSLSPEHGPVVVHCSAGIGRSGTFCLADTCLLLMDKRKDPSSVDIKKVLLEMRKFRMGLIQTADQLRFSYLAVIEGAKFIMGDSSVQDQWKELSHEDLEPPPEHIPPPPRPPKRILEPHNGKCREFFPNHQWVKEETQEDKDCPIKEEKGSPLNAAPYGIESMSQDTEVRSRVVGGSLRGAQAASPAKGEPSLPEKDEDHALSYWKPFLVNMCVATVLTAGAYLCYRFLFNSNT
Nature of the test: PTP1B inhibition assay (p-NPP dephosphorylation). Conditions: 3 mM p-NPP, HEPES pH 7.0, 30 °C, 10 min; read-out: IC50 against PTP1B. It counts as biochemical.
Protocol: The dephosphorylation of para-nitrophenyl phosphate (p-NPP) was catalyzed to para-nitrophenol by PTP1B. Enzyme activity involving an end-point assay, which intensified the yellow color, was measured at a wavelength of 405 nm. All compounds were dissolved in 100% dimethyl sulfoxide (DMSO), and reactions, including controls, were performed at a final concentration of 10% DMSO. Selected compounds were first evaluated for their ability to inhibit the PTPase reaction at a 10 μM concentration at 30 °C for 10 min, in a reaction system with 3 mM p-NPP in HEPES assay buffer (pH 7.0). The reaction was initiated by addition of the enzyme and quenched by addition of 1 M NaOH. The amount of the produced p-nitrophenol was determined at 405 nm using a microplate spectrophotometer (uQuant, Bio-Tek, Winooski, VT, USA). IC50 values were evaluated using a sigmoidal dose-response (variable slope) curve-fitting program of GraphPad Prism 4.0 software (La Jolla, CA, USA). Oleanolic acid was used as a positive control.

The structures appear in SMILES notation. pIC50: −log10 of the molar value.

As for `COc1cc(C=CC(=O)OCC2C(Cc3ccc(O)c(OC)c3)COC2c2cc(OC)c(O)c(OC)c2)ccc1O` (single isomer, unassigned; (+)) [Compound 14, (+)-9′-O-(E)-feruloyl-5′-methoxylariciresinol], the concentration for half-maximal inhibition (IC50) in test [1] was 10.5 µM; in test [2] it was over 20 µM; in test [3], over 20 µM.
`COc1cc([C@@H]2c3c(cc(OC)c(O)c3OC)C=C(C(=O)NCCc3ccc(O)cc3)[C@H]2CO)cc(OC)c1O` [Compound 1, (−)-(7′R,8′S)-N-[2-(4-hydroxyphenyl)-ethyl]-4,4′,9′-trihydroxy-3,5,3′,5′-tetramethoxy-2,7′-cyclolignan-7-en-9-amide]: the IC50 in test [1], in test [2] and in test [3] was over 20 µM in each case.
As for `COc1cc(C=C2C(=O)OCC2Cc2ccc(OC)c(OC)c2)ccc1O` (stereo not shown) [Compound 19, (7E,8R′)-didehydroarctigenin], the IC50 was over 20 µM in test [1], 12.8 µM in test [2] and 18.5 µM in test [3].
On the same counts, the results for `COc1cc(CCNC(=O)[C@@H]2C(C(=O)NCCc3ccc(O)cc3)=Cc3cc(OC)c(O)c(OC)c3[C@H]2c2cc(OC)c(O)c(OC)c2)ccc1O` [Compound 2, (−)-(7′R,8′S)-N^1-[2-(4-hydroxyphenyl)-ethyl]-N^2-[2-(4-hydroxy-3-methoxyphenyl)-ethyl]-4,4′-dihydroxy-3,5,3′,5′-tetramethoxy-2,7′-cyclolignan-7-en-9,9′-diamide] are over 20 µM, over 20 µM and over 20 µM.
The corresponding values for `COc1cc(C[C@H]2C(=O)OC[C@@H]2Cc2ccc(OC)c(OC)c2)ccc1O` [Compound 17, arctigenin] are over 20 µM, 0.28 µM and 3.25 µM.
In the case of `COc1cc([C@@H]2c3c(cc(OC)c(O)c3OC)C=C(C(=O)NCCc3ccc(O)cc3)[C@H]2C(=O)NCCc2ccc(O)cc2)cc(OC)c1O` [Compound 10, 1,2-dihydro-6,8-dimethoxy-7-hydroxy-1-(3,5-dimethoxy-4-hydroxyphenyl)-N^1,N^2-bis-[2-(4-hydroxypeenyl)ethyl]-2,3-naphthalene dicarboxamide], the IC50 in test [1], in test [2] and in test [3] was over 20 µM throughout.
Turning to `COc1cc(C=CC(=O)OCC2C(c3cc(OC)c(O)c(OC)c3)OCC2C(OC)c2cc(OC)c(O)c(OC)c2)ccc1O` (stereo not shown) [Compound 9, 9′-O-(E)-Feruloyl-5,7,5′-trimethoxylariciresinol], the half-inhibitory concentration (IC50) in test [1] was 13.2 µM; in test [2], over 20 µM; in test [3] it was over 20 µM.
On to `COc1cc(CCNC(=O)C2=Cc3cc(OC)c(O)c(OC)c3[C@@H](c3cc(OC)c(O)c(OC)c3)[C@@H]2C(=O)NCCc2ccc(O)cc2)ccc1O` [Compound 3, (−)-(7′R,8′S)-N^1-[2-(4-hydroxy-3-methoxyphenyl)-ethyl]-N^2-[2-(4-hydroxyphenyl)-ethyl]-4,4′-dihydroxy-3,5,3′,5′-tetramethoxy-2,7′-cyclolignan-7-en-9,9′-diamide], for which the IC50 in test [1], in test [2] and in test [3] was over 20 µM in each case.
Take `COc1cc(/C=C/C(=O)OC[C@@H](Cc2cc(OC)c(O)c(OC)c2)[C@@H](COC(=O)/C=C/c2ccc(O)c(OC)c2)Cc2cc(OC)c(O)c(OC)c2)ccc1O` [Compound 11, (+)-9,9′-O-di-(E)-feruloyl-5,5′-dimethoxy secoisolariciresinol]: the negative logarithm of the IC50 (pIC50) in test [4] was 4.32; in test [5] it was 4.87. The concentration for half-maximal inhibition (IC50) in test [1], in test [2] and in test [3] was over 20 µM throughout.
As for `COc1cc(C=CC(=O)OCC2C(C(=O)c3cc(OC)c(O)c(OC)c3)COC2c2cc(OC)c(O)c(OC)c2)ccc1O` (single isomer, unassigned; (+)) [Compound 7], the half-maximal inhibitory concentration (IC50) in test [1] was 2.47 µM; in test [2], over 20 µM; in test [3], over 20 µM. Also, the “folds more active than 8, 9, 13, and 14” value in test [1] (NCI-H1650 cell line, versus 8, 9, 13 and 14) is reported as 4-6 folds.
Regarding `COc1cc(C=CC(=O)OCC2C(Cc3cc(OC)c(O)c(OC)c3)COC2c2cc(OC)c(O)c(OC)c2)cc(OC)c1O` (single isomer, unassigned; (+)) [Compound 8], the IC50 in test [1] was 11.2 µM; in test [2], over 20 µM; in test [3], over 20 µM.
On to `COc1cc(/C=C/C(=O)OC[C@@H](Cc2ccc(O)c(OC)c2)[C@@H](COC(=O)/C=C/c2ccc(O)c(OC)c2)Cc2ccc(O)c(OC)c2)ccc1O` [Compound 12, (+)-9,9′-O-di-(E)-feruloyl-secoisolariciresinol], for which the negative logarithm of the IC50 (pIC50) in test [4] is 4.18. The IC50 in test [1], in test [2] and in test [3] was over 20 µM in each case.
Turning to `CC(=O)O[C@H]1C(=O)[C@@]2(C)[C@H]([C@H](OC(=O)c3ccccc3)[C@]3(O)C[C@H](OC(=O)[C@H](O)[C@@H](NC(=O)c4ccccc4)c4ccccc4)C(C)=C1C3(C)C)[C@]1(OC(C)=O)CO[C@@H]1C[C@@H]2O` [Taxol, reference compound], the IC50 in test [1] was found to be 1.28 µM; in test [2] it was 0.02 µM; in test [3], 0.005 µM.
In the case of `COc1cc(/C=C/C(=O)OC[C@@H](Cc2ccc(O)c(OC)c2)[C@@H](CO)Cc2ccc(O)c(OC)c2)ccc1O` [Compound 6, (+)-(8S,8′S)-9-O-(E)-feruloyl-secoisolariciresinol], in test [4], the pIC50 was 4.23. In addition, the IC50 in test [1], in test [2] and in test [3] was over 20 µM throughout.
Turning to `COc1cc(C=CC(=O)OCC2C(Cc3cc(OC)c(O)c(OC)c3)COC2c2cc(OC)c(O)c(OC)c2)ccc1O` (single isomer, unassigned; (+)) [Compound 13, (+)-9′-O-(E)-feruloyl-5,5′-dimethoxylariciresinol], the values for the 50% inhibitory concentration (IC50) in test [1], in test [2] and in test [3] were 9.68 µM, over 20 µM and over 20 µM, respectively.
In the case of `COc1cc(/C=C/C(=O)OC[C@@H](Cc2cc(OC)c(O)c(OC)c2)[C@@H](CO)Cc2cc(OC)c(O)c(OC)c2)ccc1O` [Compound 5, (+)-(8S,8′S)-9-O-(E)-feruloyl-5,5′-dimethoxysecoisolariciresinol], the pIC50 in test [4] was 4.30. The IC50 in test [1], in test [2] and in test [3] was over 20 µM in each case.
For `COc1cc(C[C@H]2COC(=O)[C@@H]2Cc2ccc(O)c(OC)c2)ccc1O` [Compound 18, matairesinol], the half-inhibitory concentration (IC50) in test [1] is over 20 µM; in test [2], 1.53 µM; in test [3] it was 14 µM.
Consider `C[C@@H]1C[C@H]2[C@@H]3CCC4=CC(=O)C=C[C@]4(C)[C@@]3(F)[C@@H](O)C[C@]2(C)[C@@]1(O)C(=O)CO` [Dexamethasone, reference compound], for which, in test [4], the pIC50 was 5.02.
In the case of `COc1cc(CC2COC(c3cc(OC)c(O)c(OC)c3)C2CO)ccc1O` (single isomer, unassigned; (+)) [Compound 16, (+)-5′-methoxylariciresinol], the IC50 in test [1], in test [2] and in test [3] was over 20 µM each time.
As to `COc1cc(CC2COC(c3cc(OC)c(O)c(OC)c3)C2CO)cc(OC)c1O` (single isomer, unassigned; (+)) [Compound 15, (+)-5,5′-dimethoxylariciresinol], the IC50 in test [1], in test [2] and in test [3] was over 20 µM throughout.

In general, IC50 refers to the midpoint of a concentration-inhibition curve. A low value points to higher potency. For orientation: pIC50 means the negative decadic logarithm of the IC50, by convention in mol/L.
